The values below come from US9067960B2, “Hybrid SCFA-hydroxyl-derivatized monosaccharides, methods of synthesis, and methods of treating disorders” (The Johns Hopkins University, priority 2007, dated 2015).

The nature of one series: Toxicity of MOE analogs. Type of series: cell-based.
For a further series, the system named is stem cells. The series is described as follows: Control of stem cell fate. Type of series: cell-based, human. The text has this: The combination of the biological activities SCFA- and sugar activities of compounds (such as Bu4ManNAc or l(OH)But3ManNAc is useful for cancer treatment because each of the biological activities of the hybrid molecule have been designed to work in concert against a particular characteristic of cancer. An equally valuable aspect of the current invention, however, is ability to separate the various biological activities of the hybrid molecules—for example it is now possible to maintain flux through a glycosylation pathway and to simultaneously avoid or minimize SCFA effects such as toxicity or changes to gene expression that affect the cellular phenotype under investigation (see FIG. 10). This ability opens the door to the many scenarios where an SCFA is attached to a core sugar towards the sole purpose of increasing the metabolic efficiency of the sugar without triggering biological activities of the SCFA moiety. In this case, non-natural monosaccharide analogs would transit the glycosylation pathways without eliciting unrelated changes to proliferation, apoptosis, or gene expression that would either confound interpretation of the experiment under way or actually lead to deleterious cellular outcomes. […]

The subject of the next series is human cancer cells. Description: Killing of cancer cells by SCFA-hexosamine hybrid molecules (apoptosis, growth). The format is cell-based. The text has this: ManNAc has several attractive features that led us to select it as an hexosamine for use in butyrate-sugar hybrid drug development. First, it is a committed precursor for the sialic acid biosynthetic pathway and has no other known metabolic roles, thereby allowing a specific and unique biochemical pathway to be targeted. Second, uptake of exogenous ManNAc alters flux through the sialic acid biosynthetic pathway and changes sialyltransferase and sialidase activity thereby altering the display of sialic acid on cell surface glycoproteins and glycolipids. Because these sialoglycans modulate apoptosis, it was hypothesized that an n-butyrate prodrug with ManNAc as an active carrier would both “arrest” and “execute” cancer cells via SCFA-mediated cell cycle inhibition and ManNAc-augmented apoptosis, respectively. […]
Jurkat cells (5.0×10^5 per mL) are incubated with PBS and a compound of the invention at […]. After 48 h, the cells are counted, harvested, washed once in fresh medium and plated in a 24-well plate containing various concentrations of sodium butyrate (0-2.0 mM; a stock solution of 200 mM in PBS was used for dilutions and control samples). Cell cultures are maintained and growth is monitored for 15 days as described above under the toxicity and growth inhibition assays. […]

A further series has as its system sialic acid biosynthesis. The series is described as follows: Total sialic acid production (periodate-resorcinol assay). Type of series: cell-based. The protocol: Jurkat cells (5.0×10^6 cells in 10 mL medium) are incubated a compound of the invention at various concentrations. After three days, the cells (1.0×10^6 cells per sample) are lysed by freeze-thaw cycles (three times). The cell lysates are analyzed by using an adapted version of the periodate-resorcinol assay with the periodic acid oxidation step performed on ice to allow quantification of total (i.e., free monosaccharide plus glycoconjugate-bound) sialic acid. For each assay, a standard curve is obtained using N-acetylneuraminic acid (Pfanstiehl, Waukegan, Ill.) for calibration.

The next series relates to histone deacetylase. The series is described as follows: HDAC inhibitor (SCFA) activity of sugar-delivered butyrate. Type of series: cell-based. The text has this:
In this section, we present evidence for the first aspect of our model to describe the bioactivity of the compounds of the invention against cancer cells—namely that sugar-delivered butyrate acts as an HDACi—by a set of three complementary assays. […] Together, these assays provide convincing proof that sugar-delivery n-butyrate retains its characteristic SCFA bioactivity.

Series [1] concerns Jurkat cells. The series is described as follows: Toxicity and growth inhibition assays (cell counts, days 3-15). Type of series: cell-based, human. The protocol: Solutions of the analogs in EtOH (10 mM stock) are coated onto 24-well plates at a range of concentrations from 0-320 μM and ethanol is allowed to evaporate. Jurkat cells (1.0×10^5 cells) in 0.5 mL of medium are plated in each well (day 0). On days 3 and 5, fresh medium (1.0 mL) is added to each well. Cell cultures are mixed by gentle pipetting and 100 μL of cell suspension are taken from each well and counted. On days 7, 9, 11, 13 and 15, 1.0 mL of cell suspension is removed from each well after thorough mixing and fresh medium (1.0 mL) is added. Cells are counted on day 15 and the cell density is plotted as a percentage of control.
In initial assays, Jurkat (human T-lymphoma) cells are incubated with compounds of the invention and growth rates were monitored. The compounds reduce cell proliferation at early time points (days 3 & 5) in a dose dependent manner.

Series [2] deals with Jurkat cells. The series is described as follows: Surface expression of Sia5Lev: ketone-bearing sialosides by biotin hydrazide, FITC-avidin, flow cytometry. The format is cell-based, human. Background: Flow cytometry measures light scatter and fluorescence of single cells or particles in a stream.
A further series has as its system transformed cells. The following applies: cited from earlier work.

SMILES strings stand for the structures. Entries after “also recorded” stand apart in the source; their conditions may differ.

With `CCCC(=O)OC1O[C@H](CO)[C@@H](OC(=O)CCC)[C@H](OC(=O)CCC)[C@@H]1NC(C)=O` (some centres unmarked) [6(OH)But3ManNAc, 1,3,4-O-Bu3ManNAc], in “Toxicity of MOE analogs”, the toxicity result is given as “avoiding toxicity”. Same read-out and setting: the value for `CC(=O)OCC(=O)N[C@@H]1C(OC(C)=O)O[C@H](COC(C)=O)[C@@H](OC(C)=O)[C@@H]1OC(C)=O` (some centres unmarked) [Ac5ManNGc] was “considerable toxicity”. With `CC(=O)OCC1OC(OC(C)=O)C(NC(=O)CSC(C)=O)C(OC(C)=O)C1OC(C)=O` (centres unmarked) [Ac5ManNTGc], the “fate of stem cells” value in the series with stem cells is on record as “can control the fate of stem cells”. Further, in the series “Toxicity of MOE analogs”, the toxicity entry is “considerable toxicity”. For `CCCC(=O)OCC1OC(OC(=O)CCC)C(NC(C)=O)[C@@H](OC(=O)CCC)[C@@H]1OC(=O)CCC` (some centres unmarked) [Bu4ManNAc], in the series on human cancer cells, the cell killing entry was “ultimately killed the cells” and the induction of apoptosis result is on record as “gains a unique ability to induce apoptosis; also recorded: efficiently induced apoptosis”. In the series on sialic acid biosynthesis, the sialic acid biosynthesis entry is given as “activates sialic acid biosynthesis; also recorded: primes sialic acid biosynthesis”. Further, the “function as histone deacetylase inhibitor (HDACi)” value in the series on histone deacetylase was “functioning as an HDACi”. Consider `CCCC(=O)OC1O[C@H](CO)[C@@H](OC(=O)CCC)[C@H](OC(=O)CCC)[C@@H]1NC(=O)CCC(C)=O` (stereo partly drawn) [compound 13, 1,3,4-tri-O-butanoyl-2-deoxy-2-(4-oxopentanoyl)amino-α,β-D-mannopyranose], for which, in the series on Jurkat cells [1], the “Growth inhibition after 3 days” value is recorded as “significantly less inhibitory”. The “Surface detection of ketone-bearing sialosides (cell surface ketone labeling)” value in the series on Jurkat cells [2] is reported as “even more efficient at providing cell surface ketone labeling”. In the case of `CCCC(=O)O.COc1cccc(C#CCON=C2CN3CCC2C3)c1` (centres unmarked) [n-Butyrate, n-butyrate], the “levels needed for bioactivity” value in the series on transformed cells is “up to 50 mM”.
